Results as given in ChEMBL document CHEMBL2074184, “Reversal of multidrug resistance in human leukemia K562 by tamolarizine, a novel calcium antagonist” (Jpn J Pharmacol, 2000).

Target: ATP-dependent translocase ABCB1 (Homo sapiens, UniProt P08183)
Experiment: TP_TRANSPORTER: increase in Rhodamine 123 intracellular accumulation (R123: 10 uM, Tamolarizine: 10 uM) in K562/DX cellsR cells, FACScan
Format: functional, cell-based
Settings: k562/dxr

Sequence of ATP-dependent translocase ABCB1 (P08183 whole entry): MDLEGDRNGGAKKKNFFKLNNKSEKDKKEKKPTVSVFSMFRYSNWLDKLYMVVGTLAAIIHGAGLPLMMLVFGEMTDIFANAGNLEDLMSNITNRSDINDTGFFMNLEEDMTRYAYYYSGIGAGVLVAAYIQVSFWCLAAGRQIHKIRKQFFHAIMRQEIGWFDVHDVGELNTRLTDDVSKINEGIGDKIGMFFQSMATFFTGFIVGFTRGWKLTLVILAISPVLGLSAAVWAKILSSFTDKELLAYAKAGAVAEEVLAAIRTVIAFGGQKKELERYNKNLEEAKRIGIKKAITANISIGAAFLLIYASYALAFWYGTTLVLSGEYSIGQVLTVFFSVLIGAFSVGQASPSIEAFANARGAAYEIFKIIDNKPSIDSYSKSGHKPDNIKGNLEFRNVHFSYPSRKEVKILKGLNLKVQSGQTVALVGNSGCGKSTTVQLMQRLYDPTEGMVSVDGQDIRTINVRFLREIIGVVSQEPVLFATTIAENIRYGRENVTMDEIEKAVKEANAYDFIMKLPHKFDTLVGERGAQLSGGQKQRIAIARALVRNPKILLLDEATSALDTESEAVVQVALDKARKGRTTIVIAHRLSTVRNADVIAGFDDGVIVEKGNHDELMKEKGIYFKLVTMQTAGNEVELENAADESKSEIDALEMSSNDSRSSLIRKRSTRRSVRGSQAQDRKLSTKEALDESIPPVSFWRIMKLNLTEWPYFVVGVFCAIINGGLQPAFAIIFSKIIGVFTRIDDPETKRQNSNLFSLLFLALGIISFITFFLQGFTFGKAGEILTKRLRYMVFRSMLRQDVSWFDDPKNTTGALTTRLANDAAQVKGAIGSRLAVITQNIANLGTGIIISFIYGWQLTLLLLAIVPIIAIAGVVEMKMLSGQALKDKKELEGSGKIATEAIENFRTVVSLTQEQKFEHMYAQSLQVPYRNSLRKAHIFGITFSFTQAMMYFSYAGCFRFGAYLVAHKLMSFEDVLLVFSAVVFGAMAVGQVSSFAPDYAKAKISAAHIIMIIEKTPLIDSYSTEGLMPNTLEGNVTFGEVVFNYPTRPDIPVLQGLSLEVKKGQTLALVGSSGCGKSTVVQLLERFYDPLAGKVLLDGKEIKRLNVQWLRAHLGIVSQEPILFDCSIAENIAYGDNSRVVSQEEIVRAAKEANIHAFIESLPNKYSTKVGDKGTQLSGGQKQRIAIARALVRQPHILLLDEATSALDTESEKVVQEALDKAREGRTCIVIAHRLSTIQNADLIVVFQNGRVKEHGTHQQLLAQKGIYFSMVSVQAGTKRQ

For `COc1ccc(C(O)CN2CCN(C(c3ccccc3)c3ccccc3)CC2)cc1OC` (stereo unspecified) [TAMOLARIZINE], the Activity was “inhibitor [+]”.
